In patent publication US7223760B2, “Substituted triazole compounds” (SmithKline Beecham Corporation, priority 1998, dated 2007) one finds IC50 data, which are given here for 2 molecules.

Test [1] concerns Interleukin-1 (IL-1). Put plainly: Interleukin-1 (IL-1) production by LPS-stimulated human peripheral blood monocytes. The settings on record: Monocyte, lipopolysaccharide 50 ng/ml, 24 h. The format is cell-based. The method, then:
Human peripheral blood monocytes are isolated and purified from either fresh blood preparations from volunteer donors, or from blood bank buffy coats, according to the procedure of Colotta et al, J Immunol, 132, 936 (1984). These monocytes (1×10^6) are plated in 24-well plates at a concentration of 1–2 million/ml per well. The cells are allowed to adhere for 2 hours, after which time non-adherent cells are removed by gentle washing. Test compounds are then added to the cells for 1 h before the addition of lipopolysaccharide (50 ng/ml), and the cultures are incubated at 37° C. for an additional 24 h. At the end of this period, culture supernatants are removed and clarified of cells and all debris. Culture supernatants are then immediately assayed for IL-1 biological activity, either by the method of Simon et al., J. Immunol. Methods, 84, 85, (1985) (based on ability of IL-1 to stimulate a Interleukin 2 producing cell line (EL-4) to secrete IL-2, in concert with A23187 ionophore) or the method of Lee et al., J. ImmunoTherapy, 6 (1), 1–12 (1990) (ELISA assay).

Test [2] has as its target T1, CSBP/p38 (Homo sapiens, UniProt Q16539).
T1 construct: made in house; host or cells: yeast
Briefly: CSBP/p38 Kinase Assay (32P transfer to T669 peptide). The format is biochemical. Conditions: "in this binding assay or a similar assay"; read-out: positive inhibitory activity, IC50. The method, then: This assay measures the CSBP/p38-catalyzed transfer of ^32p from [a-^32P]ATP to threonine residue in an epidermal growth factor receptor (EGFR)-derived peptide (T669) with the following sequence: […] (residues 661–681). (See Gallagher et al., “Regulation of Stress Induced Cytokine Production by Pyridinyl Imidazoles: Inhibition of CSBP Kinase”, BioOrganic & Medicinal Chemistry, 1997, 5, 49–64).
Reactions were carried in round bottom 96 well plate (from Corning) in a […]. Reactions contained (in final concentration): 25 mM Hepes, pH 7.5; 8 mM MgCl2; 0.17 mM ATP (the Km[ATP] of p38 (see Lee et al., Nature 300, n72 pg. 639–746 (December 1994)); 2.5 uCi of [g-32P]ATP; 0.2 mM sodium orthovanadate; 1 mM DTT; 0.1% BSA; 10% glycerol; 0.67 mM T669 peptide; and 2–4 nM of yeast-expressed, activated and purified p38. Reactions were initiated by the addition of [gamma-32P]Mg/ATP, and incubated for 25 min. at 37° C. Inhibitors (dissolved in DMSO) were incubated with the reaction mixture on ice for 30 minutes prior to adding the 32P-ATP. Final DMSO concentration was 0.16%. Reactions were terminated by adding 10 ul of 0.3 M phosphoric acid, and phosphorylated peptide was isolated from the reactions by capturing it on p81 phosphocellulose filters. Filters were washed with 75 mM phosphoric acids, and incorporated 32P was quantified using beta scintillation counter. […]

The structures appear in SMILES notation. Where only a bound is given, the exact number is not on record here.

T1 sequence (Q16539 whole entry): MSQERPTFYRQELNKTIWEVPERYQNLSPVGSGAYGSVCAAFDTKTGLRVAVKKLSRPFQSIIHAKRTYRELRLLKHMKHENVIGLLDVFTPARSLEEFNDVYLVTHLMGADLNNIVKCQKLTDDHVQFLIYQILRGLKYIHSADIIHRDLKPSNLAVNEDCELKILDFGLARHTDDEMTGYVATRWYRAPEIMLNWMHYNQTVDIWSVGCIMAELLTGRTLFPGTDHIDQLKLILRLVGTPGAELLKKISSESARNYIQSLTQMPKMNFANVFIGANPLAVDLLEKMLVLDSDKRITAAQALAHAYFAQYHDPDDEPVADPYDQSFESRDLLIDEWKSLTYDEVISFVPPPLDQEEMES

As for `Fc1ccc(-c2nc(-c3ccccc3)nn2-c2ccncc2)cc1` [Example 1, 1-(Pyrid-4-yl)-3-phenyl-5-(4-fluorophenyl)-1,2,4-triazole], the half-maximal inhibitory concentration (IC50) (in general, the concentration at which inhibition is half-maximal) in test [1] was below 7 µM.

As for `Nc1cc(-n2nc(-c3ccccc3)nc2-c2ccc(F)cc2)ncn1` [Example 2, 1-(6-Aminopyrimidin-4-yl)-3-phenyl-5-(4-fluorophenyl)-1,2,4-triazole], the IC50 in test [2] was below 50 µM.
